According to ChEMBL document CHEMBL1201861, “Genomics of Drug Sensitity in Cancer screening data, Wellcome Trust Sanger Institute”:

Legend:
Assay in all cases: cells
KYSE-410 = assay type: functional, cell-based, Homo sapiens; conditions: Homo sapiens, KYSE-410;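 further: growth inhibition of KYSE-410 cells, measured through a cell viability readout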
Description: SANGER: Inhibition of human KYSE-410 cell growth in a cell viability assay.

786-0 = assay type: functional, cell-based, Homo sapiens; conditions: Homo sapiens
Description: SANGER: Inhibition of human 786-0 cell growth in a cell viability assay.

LS-1034 = assay type: functional, cell-based, Homo sapiens; conditions: Homo sapiens, LS-1034
Description: SANGER: Inhibition of human LS-1034 cell growth in a cell viability assay.

TCC-SUP = assay type: functional, cell-based, Homo sapiens; conditions: Homo sapiens, TCC-SUP;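 further: growth inhibition of TCC-SUP cells, read out with a cell viability assay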
Description: SANGER: Inhibition of human TCCSUP cell growth in a cell viability assay.

UO-31 = assay type: functional, cell-based; conditions: Homo sapiens;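 further: cell viability assay measuring inhibition of cell growth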
Description: SANGER: Inhibition of human U031 cell growth in a cell viability assay.

IST-MEL1 = assay type: functional, cell-based, Homo sapiens; conditions: Homo sapiens, IST-MEL1;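 further: growth inhibition of the cell line, read out with a cell viability assay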
Description: SANGER: Inhibition of human IST-MEL1 cell growth in a cell viability assay.

MKN-7 = assay type: functional, cell-based, Homo sapiens; conditions: Homo sapiens, MKN-7;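 further: growth inhibition of MKN-7 cells, read out with a cell viability assay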
Description: SANGER: Inhibition of human MKN7 cell growth in a cell viability assay.

MDA-MB-415 = assay type: functional, cell-based; conditions: Homo sapiens
CAL-120 = assay type: functional, cell-based, Homo sapiens; conditions: Homo sapiens, CAL-120;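 further: cell growth inhibition, read out as cell viability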
Description: SANGER: Inhibition of human CAL-120 cell growth in a cell viability assay.

RT-112 = assay type: functional, cell-based, Homo sapiens; conditions: Homo sapiens, RT-112
Description: SANGER: Inhibition of human RT-112 cell growth in a cell viability assay.

U-266 = assay type: functional, cell-based; conditions: Homo sapiens
Description: SANGER: Inhibition of human U-266 cell growth in a cell viability assay.

SK-N-DZ = assay type: functional, cell-based, Homo sapiens; conditions: Homo sapiens, SK-N-DZ;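 further: growth inhibition of the cancer cell line, read out through a viability assay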
Description: SANGER: Inhibition of human SK-N-DZ cell growth in a cell viability assay.

Lu-65 = assay type: functional, cell-based; conditions: Homo sapiens;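 further: growth inhibition of Lu-65 cancer cells, read out by a cell viability assay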
Description: SANGER: Inhibition of human LU-65 cell growth in a cell viability assay.

SW948 = assay type: functional, cell-based, Homo sapiens; conditions: Homo sapiens, SW948;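 further: growth inhibition of SW948 cells, read out with a cell viability assay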
Description: SANGER: Inhibition of human SW948 cell growth in a cell viability assay.

SCC-15 = assay type: functional, cell-based, Homo sapiens; conditions: Homo sapiens, SCC-15;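 further: growth inhibition of SCC-15 cells, read out with a cell viability assay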
Description: SANGER: Inhibition of human SCC-15 cell growth in a cell viability assay.

PA-1 = assay type: functional, cell-based, Homo sapiens; conditions: Homo sapiens, PA-1;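 further: IC50 for suppression of PA-1 cell proliferation, determined with a cell viability read-out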
Description: SANGER: Inhibition of human PA-1 cell growth in a cell viability assay.

LoVo = assay type: functional, cell-based; conditions: Homo sapiens;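 further: growth inhibition of human LoVo cells, read out with a cell viability assay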
Description: SANGER: Inhibition of human LoVo cell growth in a cell viability assay.

NB10 = assay type: functional, cell-based, Homo sapiens; conditions: Homo sapiens, NB10;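 further: growth inhibition of NB10 cells, read out by a cell viability assay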
Description: SANGER: Inhibition of human NB10 cell growth in a cell viability assay.

LB2518-MEL = assay type: functional, cell-based, Homo sapiens; conditions: Homo sapiens, LB2518-MEL;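 further: growth inhibition of human LB2518-MEL cells, measured with a cell viability assay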
Description: SANGER: Inhibition of human LB2518-MEL cell growth in a cell viability assay.

A-427 = assay type: functional, cell-based, Homo sapiens; conditions: Homo sapiens, A-427;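 further: growth inhibition of human A-427 cells, read out by a cell viability assay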
Description: SANGER: Inhibition of human A427 cell growth in a cell viability assay.

DB = assay type: functional, cell-based; conditions: Homo sapiens
Description: SANGER: Inhibition of human DB cell growth in a cell viability assay.

KINGS-1 = assay type: functional, cell-based, Homo sapiens; conditions: Homo sapiens, KINGS-1;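 further: cell viability assay measuring suppression of KINGS-1 cell growth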
Description: SANGER: Inhibition of human KINGS-1 cell growth in a cell viability assay.

NCI-H1838 = assay type: functional, cell-based, Homo sapiens; conditions: Homo sapiens, NCI-H1838;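 further: growth inhibition of NCI-H1838 cells, determined with a cell viability readout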
Description: SANGER: Inhibition of human NCI-H1838 cell growth in a cell viability assay.

RERF-LC-MS = assay type: functional, cell-based, Homo sapiens; conditions: Homo sapiens, RERF-LC-MS;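 further: growth inhibition of human RERF-LC-MS cells, read out by a cell viability assay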
Description: SANGER: Inhibition of human RERF-LC-MS cell growth in a cell viability assay.

SiHa = assay type: functional, cell-based, Homo sapiens; conditions: Homo sapiens, SiHa;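 further: Viability-based readout of growth inhibition in SiHa cells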
Description: SANGER: Inhibition of human SiHa cell growth in a cell viability assay.

NCI-H526 = assay type: functional, cell-based; conditions: Homo sapiens;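 further: growth inhibition of the human NCI-H526 cell line, measured by a cell viability assay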
Description: SANGER: Inhibition of human NCI-H526 cell growth in a cell viability assay.

BCPAP = assay type: functional, cell-based, Homo sapiens; conditions: Homo sapiens, BCPAP;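 further: growth inhibition of BCPAP cells, read out in a cell viability assay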
Description: SANGER: Inhibition of human BCPAP cell growth in a cell viability assay.

C3A = assay type: functional, cell-based, Homo sapiens; conditions: Homo sapiens, C3A;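 further: growth inhibition of C3A human cells, quantified with a cell viability readout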
Description: SANGER: Inhibition of human C3A cell growth in a cell viability assay.

MN-60 = assay type: functional, cell-based; conditions: Homo sapiens;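 further: growth inhibition of the MN-60 cell line, determined with a cell viability assay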
Description: SANGER: Inhibition of human MN-60 cell growth in a cell viability assay.

LU-134-A = assay type: functional, cell-based; conditions: Homo sapiens
Description: SANGER: Inhibition of human LU-134-A cell growth in a cell viability assay.

AN3-CA = assay type: functional, cell-based; conditions: Homo sapiens;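 further: growth inhibition of human AN3-CA cells measured by a cell viability assay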
Description: SANGER: Inhibition of human AN3-CA cell growth in a cell viability assay.

BT-474 = assay type: functional, cell-based, Homo sapiens; conditions: Homo sapiens, BT-474
Description: SANGER: Inhibition of human BT-474 cell growth in a cell viability assay.

MKN-1 = assay type: functional, cell-based, Homo sapiens; conditions: Homo sapiens, MKN-1;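 further: growth inhibition of human MKN1 cells, read out by a cell viability measurement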
Description: SANGER: Inhibition of human MKN1 cell growth in a cell viability assay.

LCLC-97TM1 = assay type: functional, cell-based, Homo sapiens; conditions: Homo sapiens, LCLC-97TM1;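 further: cell viability assay measuring growth inhibition of human LCLC-97TM1 cells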
Description: SANGER: Inhibition of human LCLC-97TM1 cell growth in a cell viability assay.

L-428 = assay type: functional, cell-based; conditions: Homo sapiens
Description: SANGER: Inhibition of human L-428 cell growth in a cell viability assay.

CaR-1 = assay type: functional, cell-based, Homo sapiens; conditions: Homo sapiens, CaR-1;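 further: growth inhibition of human CaR-1 cancer cells, read out with a cell viability assay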
Description: SANGER: Inhibition of human CaR-1 cell growth in a cell viability assay.

NCI-H446 = assay type: functional, cell-based; conditions: Homo sapiens;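 further: growth inhibition of NCI-H446 cells determined by a cell viability assay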
Description: SANGER: Inhibition of human NCI-H446 cell growth in a cell viability assay.

U-118-MG = assay type: functional, cell-based, Homo sapiens; conditions: Homo sapiens, U-118-MG
Description: SANGER: Inhibition of human U-118-MG cell growth in a cell viability assay.

PFSK-1 = assay type: functional, cell-based, Homo sapiens; conditions: Homo sapiens, PFSK-1;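 further: cell viability assay measuring how strongly compounds suppress growth of human PFSK-1 cells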
Description: SANGER: Inhibition of human PFSK-1 cell growth in a cell viability assay.

KYSE-70 cell line = assay type: functional, cell-based, Homo sapiens; conditions: Homo sapiens, KYSE-70;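 further: cell viability assay read-out, with IC50 expressing suppression of KYSE-70 cell growth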
Description: SANGER: Inhibition of human KYSE-70 cell growth in a cell viability assay.

BB49-HNC = assay type: functional, cell-based, Homo sapiens; conditions: Homo sapiens, BB49-HNC;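 further: cell viability assay read-out, reported as inhibition of BB49-HNC cell growth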
Description: SANGER: Inhibition of human BB49-HNC cell growth in a cell viability assay.

A498 = assay type: functional, cell-based, Homo sapiens; conditions: Homo sapiens, A498;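 further: growth inhibition of human A498 cells, read out with a cell viability assay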
Description: SANGER: Inhibition of human A498 cell growth in a cell viability assay.

CHP-212 = assay type: functional, cell-based, Homo sapiens; conditions: Homo sapiens, CHP-212
Description: SANGER: Inhibition of human CHP-212 cell growth in a cell viability assay.

SW1088 = assay type: functional, cell-based, Homo sapiens; conditions: Homo sapiens, SW1088;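 further: growth inhibition of human SW1088 cells, read out by a cell viability assay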
Description: SANGER: Inhibition of human SW1088 cell growth in a cell viability assay.

BPH-1 = assay type: functional, cell-based, Homo sapiens; conditions: Homo sapiens, BPH-1;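 further: cell viability assay measuring growth inhibition of human BPH-1 cells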
Description: SANGER: Inhibition of human BPH-1 cell growth in a cell viability assay.

MDA-MB-175-VII = assay type: functional, cell-based, Homo sapiens; conditions: Homo sapiens, MDA-MB-175-VII
BB65-RCC = assay type: functional, cell-based, Homo sapiens; conditions: Homo sapiens, BB65-RCC;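 further: growth inhibition of the cell line, measured with a cell viability assay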
Description: SANGER: Inhibition of human BB65-RCC cell growth in a cell viability assay.

J82 = assay type: functional, cell-based; conditions: Homo sapiens;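 further: growth inhibition of J82 cells, read out with a cell viability assay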
Description: SANGER: Inhibition of human J82 cell growth in a cell viability assay.

C32 = assay type: functional, cell-based, Homo sapiens; conditions: Homo sapiens, C32;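 further: cell viability assay, with IC50 reflecting inhibition of C32 cell growth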
Description: SANGER: Inhibition of human C32 cell growth in a cell viability assay.

M14 = assay type: functional, cell-based, Homo sapiens; conditions: Homo sapiens, M14;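 further: growth inhibition of M14 cells, read out with a cell viability assay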
Description: SANGER: Inhibition of human M14 cell growth in a cell viability assay.

GCIY = assay type: functional, cell-based, Homo sapiens; conditions: Homo sapiens, GCIY;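 further: growth inhibition of the human GCIY cell line, read out by a cell viability assay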
Description: SANGER: Inhibition of human GCIY cell growth in a cell viability assay.

MFH-ino = assay type: functional, cell-based; conditions: Homo sapiens;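 further: growth inhibition of human MFH-ino cells, read out by a cell viability assay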
Description: SANGER: Inhibition of human MFH-ino cell growth in a cell viability assay.

Structure (SMILES): COc1ccc(C2=N[C@@H](c3ccc(Cl)cc3)[C@@H](c3ccc(Cl)cc3)N2C(=O)N2CCNC(=O)C2)c(OC(C)C)c1 [NUTLIN-3]
- IC50 (KYSE-410): > 8 µM
- IC50 (786-0): > 8 µM
- IC50 (LS-1034): > 8 µM
- IC50 (TCC-SUP): > 8 µM
- IC50 (UO-31): > 8 µM
- IC50 (IST-MEL1): > 8 µM
- IC50 (MKN-7): > 8 µM
- IC50 (MDA-MB-415): > 8 µM
- IC50 (CAL-120): > 8 µM
- IC50 (RT-112): > 8 µM
- IC50 (U-266): > 8 µM
- IC50 (SK-N-DZ): > 8 µM
- IC50 (Lu-65): > 8 µM
- IC50 (SW948): > 8 µM
- IC50 (SCC-15): > 8 µM
- IC50 (PA-1): 0.871 µM
- IC50 (LoVo): 6.02 µM
- IC50 (NB10): 3.21 µM
- IC50 (LB2518-MEL): > 8 µM
- IC50 (A-427): 6.88 µM
- IC50 (DB): > 8 µM
- IC50 (KINGS-1): > 8 µM
- IC50 (NCI-H1838): > 8 µM
- IC50 (RERF-LC-MS): > 8 µM
- IC50 (SiHa): > 8 µM
- IC50 (NCI-H526): > 8 µM
- IC50 (BCPAP): > 8 µM
- IC50 (C3A): > 8 µM
- IC50 (MN-60): 3.44 µM
- IC50 (LU-134-A): > 8 µM
- IC50 (AN3-CA): > 8 µM
- IC50 (BT-474): > 8 µM
- IC50 (MKN-1): > 8 µM
- IC50 (LCLC-97TM1): > 8 µM
- IC50 (L-428): > 8 µM
- IC50 (CaR-1): > 8 µM
- IC50 (NCI-H446): > 8 µM
- IC50 (U-118-MG): > 8 µM
- IC50 (PFSK-1): > 8 µM
- IC50 (KYSE-70 cell line): > 8 µM
- IC50 (BB49-HNC): > 8 µM
- IC50 (A498): > 8 µM
- IC50 (CHP-212): 1.81 µM
- IC50 (SW1088): > 8 µM
- IC50 (BPH-1): > 8 µM
- IC50 (MDA-MB-175-VII): > 8 µM
- IC50 (BB65-RCC): > 8 µM
- IC50 (J82): > 8 µM
- IC50 (C32): 5.6 µM
- IC50 (M14): > 8 µM
- IC50 (GCIY): > 8 µM

Structure (SMILES): O=c1cc(-c2cccc3c2Sc2ccccc2S3)oc(N2CCOCC2)c1 [KU-55933]
- IC50 (KYSE-410): > 10 µM
- IC50 (786-0): > 10 µM
- IC50 (LS-1034): > 10 µM
- IC50 (TCC-SUP): > 10 µM
- IC50 (UO-31): > 10 µM
- IC50 (IST-MEL1): > 10 µM
- IC50 (MKN-7): > 10 µM
- IC50 (MDA-MB-415): > 10 µM
- IC50 (CAL-120): > 10 µM
- IC50 (RT-112): > 10 µM
- IC50 (U-266): > 10 µM
- IC50 (SK-N-DZ): > 10 µM
- IC50 (SW948): > 10 µM
- IC50 (SCC-15): > 10 µM
- IC50 (PA-1): > 10 µM
- IC50 (LoVo): 6.93 µM
- IC50 (NB10): > 10 µM
- IC50 (LB2518-MEL): > 10 µM
- IC50 (A-427): > 10 µM
- IC50 (DB): > 10 µM
- IC50 (KINGS-1): > 10 µM
- IC50 (NCI-H1838): > 10 µM
- IC50 (RERF-LC-MS): > 10 µM
- IC50 (SiHa): > 10 µM
- IC50 (NCI-H526): > 10 µM
- IC50 (BCPAP): > 10 µM
- IC50 (C3A): > 10 µM
- IC50 (MN-60): > 10 µM
- IC50 (LU-134-A): > 10 µM
- IC50 (AN3-CA): > 10 µM
- IC50 (BT-474): > 10 µM
- IC50 (MKN-1): > 10 µM
- IC50 (LCLC-97TM1): > 10 µM
- IC50 (L-428): > 10 µM
- IC50 (CaR-1): > 10 µM
- IC50 (NCI-H446): > 10 µM
- IC50 (U-118-MG): > 10 µM
- IC50 (PFSK-1): > 10 µM
- IC50 (KYSE-70 cell line): > 10 µM
- IC50 (BB49-HNC): > 10 µM
- IC50 (A498): > 10 µM
- IC50 (CHP-212): > 10 µM
- IC50 (SW1088): > 10 µM
- IC50 (BPH-1): > 10 µM
- IC50 (MDA-MB-175-VII): > 10 µM
- IC50 (MFH-ino): > 10 µM
- IC50 (BB65-RCC): > 10 µM
- IC50 (J82): > 10 µM
- IC50 (C32): > 10 µM
- IC50 (M14): > 10 µM
- IC50 (GCIY): > 10 µM
